Reference: patent publication US20110160303A1, “N-ALKYLCARBONYL-AMINO ACID ESTER AND N-ALKYLCARBONYL-AMINO LACTONE COMPOUNDS AND THEIR USE” (Edward Tak WEI, priority 2005, published 2011)

How the values were obtained:
skin above the upper lip = experiment: Cooling sensation on facial skin, ointment applied to skin above the upper lip; type: in vivo, human; parameters: key to refreshing cooling and absence of skin irritation or eye irritation (“perfect cool”): (*) denotes compounds with refreshing cooling and absence of skin irritation or eye irritation after facial skin or periorbital applications; a “perfect cool.”; conditions: for Duration of Skin Cooling: 40 mM (1% wt/vol) ointment; for Duration of Skin Cooling / Duration of Action On-Off (minutes): On (onset) / Duration of Action On-Off (minutes): duration (offset minus onset) / Duration of Action On-Off (minutes): Off (offset): skin above upper lip; for Duration of Action On-Off (minutes): On (onset): 40 mM (~1% wt/vol) Aquaphor ointment, 40 to 70 mg, time to reach 2 units of coolness; for Duration of Action On-Off (minutes): duration (offset minus onset) / Duration of Action On-Off (minutes): Off (offset): 40 mM Aquaphor ointment; for Duration of Action On-Off (minutes): Off (offset): time when coolness drops below 2 units; for refreshing cooling and absence of skin irritation or eye irritation (“perfect cool”): after facial skin or periorbital applications
Excerpt: A reliable place for topical application is the skin above the upper lip (above the vermilion border of the lips), on the philtrum, lateral to the philtrum until the nasolabial folds, and on the lower nostrils (subnasale). This part of the face is known to be densely innervated with cold receptors, second only to the surfaces of the eyeball and anogenitalia. A second location is on or below the malar eminence (cheekbone). The skin above the cheekbone is thicker than above the lips, and therefore has a higher threshold for activation. At both loci, tingling, cool and cold sensations in the skin may be experienced and rated for time of onset and intensity.
The intensity of the subjective skin sensation is rated as 0, 1, 2 or 3 with: 0 as no change; 1 as slight coolness, cold, or tingling; 2 as clear-cut signal of coolness, cold, or tingling; and 3 as robust cooling or cold. The intervals for recording sensations are 5 to 10 minutes, until two successive zeroes are obtained. The results (shown in FIGS. 1 and 2) are averaged values of 4 to 6 separate trials in the same individual. The data are plotted using SigmaPlot® (Systat Software, Point Richmond Calif.) and a smoothing function with a negative exponential was used for analysis and statistical fit of the results. Confirmatory trials of cooling action of the long-acting NACE compounds were obtained in 2 to 4 individuals but not quantified for some because of the large number of chemicals that were evaluated.
(§1) The onset of drug action is taken as the time to reach 2 units of coolness intensity, and offset of drug action is the time when coolness intensity drops below 2, after previously surpassing 2 units. The duration of cooling action is defined as the offset time minus the onset time. […] The quality of the sensation is noted, for example, as pure refreshing coolness, or if the sensation is accompanied by irritation (stinging or burning). The quality of the sensation is not rated for intensity.
For bioassay on the skin, approximately 30 mg was stirred and dissolved in 3 g of warm liquid Aquaphor® ointment to a yield a 40 mM (˜1% wt/vol) ointment. The exact amount was adjusted so that the molar equivalent was about 35 to 40 mM. After cooling, 40 to 70 mg of the solid ointment was placed on the tip of a plastic stick and applied to the skin above the upper lip, on the philtrum, and lateral to the philtrum, up to the nasolabial folds, of test subjects and the onset and duration of cooling sensations noted.
The intensity of the subjective skin sensation was rated as 0, 1, 2 or 3 with: 0 as no change; 1 as slight coolness, cold, or tingling; 2 as clear signal of coolness, cold, or tingling; and 3 as robust cooling or cold. The intervals for recording sensations were 5 to 10 minutes, until two successive zeroes were obtained. The results (shown in FIGS. 1 and 2) are averaged values of 4 to 6 separate trials in the same individual. The data are plotted using SigmaPlot® (Systat Software, Point Richmond, Calif., USA) and a smoothing function with a negative exponential was used for analysis and statistical fit of the results.
as §1, with “was” for “is”, “was also noted: such” for “is noted, for example,”
Test compounds were singly applied to the skin above the upper lips at a 40 to 70 mg dose of a 1% wt/vol ointment.

[1] = Octanol/water partition coefficient; type: physicochemical
Experimental: The octanol/water partition coefficients (given in log P units) for a number of compounds were determined and are shown in Table 7, together with the threshold for cooling on the tongue tested at 40 mM. […] A longer duration of action was not precisely matched with log P values.

periorbital area = experiment: Study 4: 1% ointment applied bilaterally to the periorbital area; type: in vivo, human; conditions: periorbital application
Excerpt: A 1% preparation of 2-isopropyl-5-methyl-cyclohexanecarbonyl D-alanine methyl ester in Aquaphor® ointment was applied bilaterally to the periorbital area of four individuals. […] This alerting effect lasted for about one hour. This experiment was then repeated three days later in the evening with the same individuals whose occupations required daylong activities before a computer screen. Again, application of the ointment about the periorbital area was reported to relieve fatigue, enhance visual acuity, and to increase attention span and focus. Sensations of refreshment and improved mood were also noted.

tongue = experiment: Threshold for cooling on the tongue; type: in vivo, human; conditions: for Threshold tongue: threshold for cooling on the tongue
Experimental: Watson et al. (U.S. Pat. No. 4,178,459) tested the properties of N-substituted p-menthane carboxamides on volunteers by putting filter paper (1×1 cm), impregnated with a known amount of compound, onto the dorsal surface of the tongue of the test subject. After 30 seconds, the subject was required to report presence or absence of a cooling effect. […] The average threshold of (−)-menthol for 6 subjects was 0.25 μg, but there was a 100-fold variation in individual sensitivity. As noted above, coolness signals detected from the dorsal surface of the tongue may be confounded by gustatory, olfactory, and other variables, as well as by dilution from saliva. The octanol/water partition coefficients (given in log P units) for a number of compounds were determined and are shown in Table 7, together with the threshold for cooling on the tongue tested at 40 mM. […] A longer duration of action was not precisely matched with log P values.

oral cavity = experiment: Oral cavity test, substance placed on dorsal surface of the tongue; type: in vivo, human; conditions: for cooling sensation at the back of the throat: Study 7, 2 mg per dose; for sensory irritation in the mouth: Study 7, same test conditions
Experimental: The subject is instructed to close and hold the substance in the mouth for at least 10 seconds and not to swallow. The description of sensations is then recorded at 5 minute intervals.
The compounds of Formula (1) and (2) are white crystalline solids at room temperatures. These compounds were tested as such, or mixed 1:1 with powdered or granulated sugar. The test substances were applied at 1 to 5 mg on the mid-point of the dorsal surface of the tongue using a metal spatula or a plastic applicator. After depositing the test substance on the tongue, the subject was instructed to keep the mouth closed and allow the fluids of the mouth to inter-mix with the test substance and to distribute it to the back of the mouth (oropharynx). The presence and duration of subjective sensations from the mouth was then noted.
In normal subjects, the effects of the D-Ala methyl and ethyl ester compounds falling within Formula (1) ((R)-2-[((1R,2S,5R)-2-isopropyl-5-methyl-cyclohexanecarbonyl)-amino]-propionic acid methyl or ethyl ester)) were examined. Three doses of 1, 2 and 4 mg per application were examined and compared to a similar dose of the L-Ala methyl or ester analog ((S)-2-[((1R,2S,5R)-2-isopropyl-5-methyl-cyclohexanecarbonyl)-amino]-propionic acid methyl or ethyl ester). At the 2 or 4 mg dose, all compounds produced pleasant and robust cooling sensations on the tongue, extending down to the back of throat, and lasted for about 30 minutes and longer. The onset effect was usually within 30 seconds of application.

With CC1CCC(C(C)C)C(C(=O)NC(C)(C)C)C1 (centres unmarked) [WS-14, reference compound] the “Duration of Skin Cooling” value (skin above the upper lip) was 0.1 h, the “Duration of Action On-Off (minutes): On (onset)” value (shortened to “Duration … (onset)”) (skin above the upper lip) was 15 min and the “Duration of Action On-Off (minutes): duration (offset minus onset)” value (“Duration … (offset minus onset)” below) (skin above the upper lip) was 8 min. For the same compound, the “Duration of Action On-Off (minutes): Off (offset)” value (“Duration … (offset)” for short) (skin above the upper lip) was 23 min, the “Log P” value [1] was 4.5 and the “irritation of skin and eye surfaces” value (periorbital area) was “significant skin and eye irritation”. For the same compound, the Threshold tongue (tongue) was 0.4 µg.
For CC(C)[C@@H]1CC[C@@H](C)C[C@H]1C(=O)NC1CCOC1=O (mixture of isomers) [racemic Hsl, (1R,2S,5R)-2-isopropyl-5-methyl-cyclohexanecarboxylic acid (2-oxo-tetrahydro-furan-3-yl)-amide], the “Duration of Skin Cooling” value (skin above the upper lip) was 1.4 h, the “Duration … (onset)” value (skin above the upper lip) was 2 min and the “Duration … (offset minus onset)” value (skin above the upper lip) was 84 min. The “Duration … (offset)” value (skin above the upper lip) was 86 min, the “refreshing cooling and absence of skin irritation or eye irritation (“perfect cool”)” value (“refreshing cooling and absence” for short) (skin above the upper lip) was “racemic Hsl (*)” and the logP [1] was 2.5. The “cooling sensation at the back of the throat” value (“cooling sensation at the back” for short) (oral cavity) was “robust and prolonged cooling”.
For CCOC(=O)CN(C)C(=O)C1CC(C)CCC1C(C)C (centres unmarked) [Sar Et Ester], the “Duration of Skin Cooling” value (skin above the upper lip) was 1.0 h, the “Duration … (onset)” value (skin above the upper lip) was 2 min and the “Duration … (offset minus onset)” value (skin above the upper lip) was 63 min. The “Duration … (offset)” value (skin above the upper lip) was 65 min, the “refreshing cooling and absence” value (skin above the upper lip) was “Sar Et Ester (*)” and the “duration of action relative to WS-11” value (skin above the upper lip; in vivo) was “five”. The “Log P” value [1] was 2.9, the “sensory irritation in the mouth” value (oral cavity) was “some sensory irritation” and the “times less potent than WS-11 on the tongue threshold test” value (tongue; in vivo) was 2.7 times. For the same compound, the Threshold tongue (tongue) was 0.8 µg.
In the case of CCNC(=O)C1CC(C)CCC1C(C)C (centres unmarked) [WS-3, reference compound], the “Duration … (onset)” value (skin above the upper lip) is reported as 5 min, the “Duration … (offset)” value (skin above the upper lip) is reported as 23 min and the “Log P” value [1] is reported as 3.7. For the same compound, the “irritation of skin and eye surfaces” value (periorbital area) was “significant skin and eye irritation” and the Threshold tongue (tongue) was 0.2 µg.
In the case of CCOC(=O)CNC(=O)[C@@H]1C[C@H](C)CC[C@H]1C(C)C [Gly Et Ester (WS-5), N-p-menthanecarbonyl glycine ethyl ester, reference compound], the “Duration of Skin Cooling” value (skin above the upper lip) is reported as 0.5 h, the “Duration … (onset)” value (skin above the upper lip) is reported as 4 min and the “Duration … (offset minus onset)” value (skin above the upper lip) is reported as 33 min. The “Duration … (offset)” value (skin above the upper lip) was 37 min, the “refreshing cooling and absence” value (skin above the upper lip) was “Gly Et Ester (WS-5) (*)” and the logP [1] was 2.9. The “sensory irritation in the mouth” value (oral cavity) was “some sensory irritation” and the Threshold tongue (tongue) was 0.2 µg.
In the case of CC(C)[C@@H]1CC[C@@H](C)C[C@H]1C(=O)N[C@H]1CCOC1=O [L-Hsl, (1R,2S,5R)-2-isopropyl-5-methyl-cyclohexanecarboxylic acid (S)-(2-oxo-tetrahydro-furan-3-yl)-amide], the “Duration of Skin Cooling” value (skin above the upper lip) is reported as 1.4 h, the “Duration … (onset)” value (skin above the upper lip) is reported as 2 min and the “Duration … (offset minus onset)” value (skin above the upper lip) is reported as 85 min. The “Duration … (offset)” value (skin above the upper lip) was 87 min, the “refreshing cooling and absence” value (skin above the upper lip) was “L-Hsl (*)” and the logP [1] was 2.5. The “cooling sensation at the back” value (oral cavity) was “robust and prolonged cooling”.
In the case of CC(C)[C@@H]1CC[C@@H](C)C[C@H]1C(=O)N[C@@H]1CCOC1=O [D-Hsl, (1R,2S,5R)-2-isopropyl-5-methyl-cyclohexanecarboxylic acid ((R)-2-oxo-tetrahydro-furan-3-yl)-amide], the “Duration of Skin Cooling” value (skin above the upper lip) is reported as 1.3 h, the “Duration … (onset)” value (skin above the upper lip) is reported as 2 min and the “Duration … (offset minus onset)” value (skin above the upper lip) is reported as 78 min. The “Duration … (offset)” value (skin above the upper lip) was 80 min, the “refreshing cooling and absence” value (skin above the upper lip) was “D-Hsl (*)” and the logP [1] was 2.5. The “cooling sensation at the back” value (oral cavity) was “robust and prolonged cooling”.
For CNC(=O)C(C)(C(C)C)C(C)C [WS-23, N-2,3-trimethyl-2-isopropylbutanamide, reference compound], the “irritation of skin and eye surfaces” value (periorbital area) was “significant skin and eye irritation”.
For CC1CCC(C(C)C)C(C(=O)NC(C)(C)CO)C1 (centres unmarked) [WS-11, reference compound], the “Duration of Skin Cooling” value (skin above the upper lip) was 0.2 h, the “Duration … (onset)” value (skin above the upper lip) was 8 min and the “Duration … (offset minus onset)” value (skin above the upper lip) was 10 min. The “Duration … (offset)” value (skin above the upper lip) was 18 min, the “Log P” value [1] was 2.9 and the “irritation of skin and eye surfaces” value (periorbital area) was “significant skin and eye irritation”. The Threshold tongue (tongue) was 0.3 µg.
